Structures are written as SMILES. The source made the active and inactive calls.

A word on the Ki: it is a dissociation constant, usually derived from enzyme kinetics or from competition with a known ligand.

In experiment [1] the target is Sphingosine 1-phosphate receptor 4 (Homo sapiens, UniProt O95977). Put plainly: Late-stage fluorescence-based dose-response cell-based counterscreen assay to identify agonists of the Sphingosine 1-Phosphate Receptor 3 (S1P3): Sphingosine 1-Phosphate Receptor 4 (S1P4) agonist assay. It is filed as functional. For orientation: The purpose of a counterscreen is to sort out artefacts and off-target activity.

In experiment [2] the target is Sphingosine 1-phosphate receptor 2 (Homo sapiens, UniProt O95136). As to the kind of experiment: Late-stage fluorescence-based dose-response cell-based counterscreen assay to identify agonists of the Sphingosine 1-Phosphate Receptor 3 (S1P3): Sphingosine 1-Phosphate Receptor 2 (S1P2) agonist assay. The format is functional.
Experiment [3] addresses Dual specificity protein kinase CLK4 (Homo sapiens, UniProt Q9HAZ1). The format is functional.
Experiment [4] has as its target Dual specificity protein kinase CLK2 (Homo sapiens, UniProt P49760). It is filed as functional.
Experiment [5] deals with Dual specificity tyrosine-phosphorylation-regulated kinase 1A (Homo sapiens, UniProt Q13627). The format is functional.
Experiment [6] deals with Serine/threonine-protein kinase D2 (Homo sapiens, UniProt Q9BZL6). It is filed as functional.
Experiment [7] addresses Serine/threonine-protein kinase D3 (Homo sapiens, UniProt O94806). It is filed as functional.
Experiment [8] concerns the target Macrophage colony-stimulating factor 1 receptor (Homo sapiens, UniProt P07333). The format is functional.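 Also: value comes from the Navigating the Kinome screening panel, CSF1R member.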
Experiment [9] addresses Rho-associated protein kinase 1 (Homo sapiens, UniProt Q13464). It is filed as functional.
Experiment [10] deals with Ribosomal protein S6 kinase alpha-3 (Homo sapiens, UniProt P51812). It is filed as functional.
A short description of experiment [11]: SAR analysis of small molecule activators of Apaf-1 using a LZ-Caspase-9/Caspase-3 Fluorescent Selectivity assay - Set 2. It is filed as functional. The following applies: read-out: EC50_Mean.
In experiment [12] the target is Apoptotic protease-activating factor 1 (Homo sapiens, UniProt O14727). Put plainly: SAR analysis of small molecule Activators of Apaf-1 in a Fluorescent assay - set 2. It is filed as functional. The following applies: read-out: EC50_Mean.
Experiment [13] concerns the target T1, High affinity choline transporter 1 (Homo sapiens, UniProt Q9GZV3).
T1 sequence (Q9GZV3 whole entry): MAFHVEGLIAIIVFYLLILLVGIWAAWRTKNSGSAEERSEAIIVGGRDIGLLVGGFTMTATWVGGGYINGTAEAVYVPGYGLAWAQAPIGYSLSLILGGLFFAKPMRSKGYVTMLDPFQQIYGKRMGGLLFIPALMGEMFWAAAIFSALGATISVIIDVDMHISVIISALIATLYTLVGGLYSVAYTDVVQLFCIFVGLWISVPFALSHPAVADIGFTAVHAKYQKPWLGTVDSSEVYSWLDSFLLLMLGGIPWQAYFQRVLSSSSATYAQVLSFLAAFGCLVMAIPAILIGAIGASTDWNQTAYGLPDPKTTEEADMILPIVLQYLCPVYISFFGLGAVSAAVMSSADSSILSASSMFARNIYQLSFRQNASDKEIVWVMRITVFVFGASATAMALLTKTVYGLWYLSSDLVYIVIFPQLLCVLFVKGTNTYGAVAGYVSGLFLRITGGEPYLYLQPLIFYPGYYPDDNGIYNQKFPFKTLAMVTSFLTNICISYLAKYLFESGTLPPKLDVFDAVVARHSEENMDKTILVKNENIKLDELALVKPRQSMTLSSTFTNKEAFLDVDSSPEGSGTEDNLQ
As to the kind of experiment: CHT inhibitors, dose response, cell-based, 10-point CRC, membrane potential dye (AID 588401).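 Also: membrane potential dye fluorescence of choline-evoked depolarization via CHT.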 The format is functional.

Experiment [14] deals with T1, High affinity choline transporter 1. Put plainly: CHT inhibitors, dose response, cell-based, 5-point CRC, membrane potential dye (AID 504840). The format is functional.
The target in experiment [15] is Glycogen synthase kinase-3 beta (Homo sapiens, UniProt P49841). It is filed as functional.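 Also: value comes from a broad kinome profiling panel, with GSK3B as the panel member.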
In experiment [16] the target is Serine/threonine-protein kinase Nek4 (Homo sapiens, UniProt P51957). It is filed as functional.
Experiment [17] has as its target Casein kinase II subunit alpha (Homo sapiens, UniProt P68400). It is filed as functional.
The target in experiment [18] is Interleukin-1 receptor-associated kinase 4 (Homo sapiens, UniProt Q9NWZ3). The format is functional.
Experiment [19] concerns the target T2, DNA dC->dU-editing enzyme APOBEC-3G (Homo sapiens, UniProt Q9HC16). It is filed as functional.
In experiment [20] the target is T3, DNA dC->dU-editing enzyme APOBEC-3A (Homo sapiens, UniProt P31941). Put plainly: Dose Response confirmation of small molecule APOBEC3A DNA Deaminase Inhibitors via a fluorescence-based single-stranded DNA deaminase assay. [Related pubchem assays (depositor defined):AID493011, AID493024]. The format is functional.
For experiment [21], the target named is T3, DNA dC->dU-editing enzyme APOBEC-3A. As to the kind of experiment: SAR analysis of small molecule inhibitors of APOBEC3A DNA Deaminase via a fluorescence-based single-stranded DNA deaminase assay. The format is functional. The note with it: read-out: IC50_Mean.
The target in experiment [22] is Eukaryotic translation initiation factor 4H (Homo sapiens, UniProt Q15056). As to the kind of experiment: human eIF4H binding inhibitors, primary screen, translation initiation inhibitor project, biochemical, uHTS, fluorescence polarization (AID 2012). Background: In fluorescence polarisation assays a small probe gives low polarisation when free and higher when bound to something large.

The target of experiment [23] is Polyadenylate-binding protein 1 (Homo sapiens, UniProt P11940). As to the kind of experiment: PABP poly(A) RNA binding inhibitors, primary screen, biochemical, fluorescence polarization, uHTS (AID 2014).
The target of experiment [24] is T2, DNA dC->dU-editing enzyme APOBEC-3G. Put plainly: APOBEC3G deaminase inhibitors, SAR follow-up, biochemical, fluorescence, single-stranded DNA substrate (AID 602136). The format is functional. The note with it: read-out: IC50_Mean.

Dual specificity protein kinase CLK4, sequence (Q9HAZ1 whole entry): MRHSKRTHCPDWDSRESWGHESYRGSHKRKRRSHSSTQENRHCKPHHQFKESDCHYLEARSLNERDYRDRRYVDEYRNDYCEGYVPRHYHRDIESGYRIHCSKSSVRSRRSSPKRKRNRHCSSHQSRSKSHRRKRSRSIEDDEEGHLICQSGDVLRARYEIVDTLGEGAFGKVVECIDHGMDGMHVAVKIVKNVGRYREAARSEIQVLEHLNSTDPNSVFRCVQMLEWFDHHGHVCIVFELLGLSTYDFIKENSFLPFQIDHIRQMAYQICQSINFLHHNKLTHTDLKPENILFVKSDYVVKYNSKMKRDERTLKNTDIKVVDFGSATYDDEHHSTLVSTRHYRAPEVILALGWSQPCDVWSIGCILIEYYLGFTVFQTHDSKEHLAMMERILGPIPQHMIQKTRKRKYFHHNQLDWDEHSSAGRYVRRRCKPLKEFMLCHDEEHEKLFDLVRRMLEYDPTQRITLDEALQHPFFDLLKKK
T2 sequence (Q9HC16 whole entry): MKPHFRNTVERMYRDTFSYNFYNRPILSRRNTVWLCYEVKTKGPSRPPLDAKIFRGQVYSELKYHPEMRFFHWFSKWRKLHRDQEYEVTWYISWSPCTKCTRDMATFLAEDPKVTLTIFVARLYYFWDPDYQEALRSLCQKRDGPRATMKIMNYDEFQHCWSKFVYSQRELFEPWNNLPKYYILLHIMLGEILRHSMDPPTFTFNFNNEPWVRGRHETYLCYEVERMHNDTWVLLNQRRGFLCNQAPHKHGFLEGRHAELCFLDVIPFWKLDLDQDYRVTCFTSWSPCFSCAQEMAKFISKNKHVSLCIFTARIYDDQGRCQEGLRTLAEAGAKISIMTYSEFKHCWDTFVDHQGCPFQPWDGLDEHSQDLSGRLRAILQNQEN
T3 sequence (P31941 whole entry): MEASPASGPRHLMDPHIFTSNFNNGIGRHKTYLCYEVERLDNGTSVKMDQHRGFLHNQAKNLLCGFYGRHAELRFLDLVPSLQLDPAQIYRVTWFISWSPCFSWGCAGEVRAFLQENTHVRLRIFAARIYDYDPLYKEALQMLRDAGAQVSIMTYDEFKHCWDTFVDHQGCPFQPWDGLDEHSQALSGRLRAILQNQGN
Interleukin-1 receptor-associated kinase 4, sequence (Q9NWZ3 whole entry): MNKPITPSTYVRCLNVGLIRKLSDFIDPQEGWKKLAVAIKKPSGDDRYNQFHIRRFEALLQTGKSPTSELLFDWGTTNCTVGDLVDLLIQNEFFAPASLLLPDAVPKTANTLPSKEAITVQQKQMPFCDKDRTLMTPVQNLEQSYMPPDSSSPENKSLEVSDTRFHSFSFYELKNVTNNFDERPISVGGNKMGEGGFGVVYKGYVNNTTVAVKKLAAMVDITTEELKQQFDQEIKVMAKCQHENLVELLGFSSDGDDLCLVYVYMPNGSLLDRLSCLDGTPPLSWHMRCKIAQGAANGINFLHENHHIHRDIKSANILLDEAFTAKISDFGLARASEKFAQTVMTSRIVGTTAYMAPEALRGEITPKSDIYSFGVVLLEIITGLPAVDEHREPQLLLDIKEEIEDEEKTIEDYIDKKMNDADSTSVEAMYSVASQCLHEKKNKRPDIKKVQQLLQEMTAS
Glycogen synthase kinase-3 beta, sequence (P49841 whole entry): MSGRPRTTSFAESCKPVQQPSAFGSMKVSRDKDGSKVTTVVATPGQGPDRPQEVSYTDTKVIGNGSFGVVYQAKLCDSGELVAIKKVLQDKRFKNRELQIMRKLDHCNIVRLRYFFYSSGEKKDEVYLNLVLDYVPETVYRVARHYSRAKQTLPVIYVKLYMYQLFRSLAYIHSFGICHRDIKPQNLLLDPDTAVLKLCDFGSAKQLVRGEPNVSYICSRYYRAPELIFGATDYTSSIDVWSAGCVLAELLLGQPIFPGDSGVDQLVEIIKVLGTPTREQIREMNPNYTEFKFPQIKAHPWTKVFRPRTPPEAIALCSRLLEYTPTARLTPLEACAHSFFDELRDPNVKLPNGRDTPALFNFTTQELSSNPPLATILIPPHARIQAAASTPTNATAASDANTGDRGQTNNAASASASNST
Casein kinase II subunit alpha, sequence (P68400 whole entry): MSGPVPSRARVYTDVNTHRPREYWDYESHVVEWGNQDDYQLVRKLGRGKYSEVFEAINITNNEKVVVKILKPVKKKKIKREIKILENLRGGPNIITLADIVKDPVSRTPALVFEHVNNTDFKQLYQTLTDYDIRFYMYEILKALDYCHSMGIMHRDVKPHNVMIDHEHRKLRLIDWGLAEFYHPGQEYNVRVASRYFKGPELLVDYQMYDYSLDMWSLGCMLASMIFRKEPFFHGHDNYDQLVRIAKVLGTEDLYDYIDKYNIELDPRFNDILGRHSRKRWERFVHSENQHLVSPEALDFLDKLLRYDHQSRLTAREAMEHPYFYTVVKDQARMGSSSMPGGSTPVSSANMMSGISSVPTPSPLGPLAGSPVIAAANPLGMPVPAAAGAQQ
Serine/threonine-protein kinase D2, sequence (Q9BZL6 whole entry): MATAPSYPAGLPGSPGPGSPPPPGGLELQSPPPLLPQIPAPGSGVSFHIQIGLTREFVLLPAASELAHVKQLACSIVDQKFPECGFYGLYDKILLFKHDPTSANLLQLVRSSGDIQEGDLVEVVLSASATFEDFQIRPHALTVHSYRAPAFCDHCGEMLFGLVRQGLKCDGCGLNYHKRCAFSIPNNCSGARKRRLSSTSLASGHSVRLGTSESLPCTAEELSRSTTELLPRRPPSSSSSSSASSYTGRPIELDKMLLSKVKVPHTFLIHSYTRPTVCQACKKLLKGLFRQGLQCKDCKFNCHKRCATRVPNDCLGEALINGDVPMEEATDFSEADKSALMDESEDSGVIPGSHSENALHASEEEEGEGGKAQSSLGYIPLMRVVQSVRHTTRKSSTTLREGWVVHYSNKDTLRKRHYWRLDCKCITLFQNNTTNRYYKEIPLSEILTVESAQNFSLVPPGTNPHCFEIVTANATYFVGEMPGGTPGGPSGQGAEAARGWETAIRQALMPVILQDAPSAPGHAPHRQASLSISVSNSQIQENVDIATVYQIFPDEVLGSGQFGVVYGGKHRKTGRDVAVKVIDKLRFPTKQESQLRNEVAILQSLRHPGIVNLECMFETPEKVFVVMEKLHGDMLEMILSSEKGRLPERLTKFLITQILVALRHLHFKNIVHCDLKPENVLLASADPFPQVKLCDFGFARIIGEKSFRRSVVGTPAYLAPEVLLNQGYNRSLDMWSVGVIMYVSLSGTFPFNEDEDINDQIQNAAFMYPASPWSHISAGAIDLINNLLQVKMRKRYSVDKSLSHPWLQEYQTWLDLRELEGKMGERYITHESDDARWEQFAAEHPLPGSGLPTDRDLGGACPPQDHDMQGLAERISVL
Rho-associated protein kinase 1, sequence (Q13464 whole entry): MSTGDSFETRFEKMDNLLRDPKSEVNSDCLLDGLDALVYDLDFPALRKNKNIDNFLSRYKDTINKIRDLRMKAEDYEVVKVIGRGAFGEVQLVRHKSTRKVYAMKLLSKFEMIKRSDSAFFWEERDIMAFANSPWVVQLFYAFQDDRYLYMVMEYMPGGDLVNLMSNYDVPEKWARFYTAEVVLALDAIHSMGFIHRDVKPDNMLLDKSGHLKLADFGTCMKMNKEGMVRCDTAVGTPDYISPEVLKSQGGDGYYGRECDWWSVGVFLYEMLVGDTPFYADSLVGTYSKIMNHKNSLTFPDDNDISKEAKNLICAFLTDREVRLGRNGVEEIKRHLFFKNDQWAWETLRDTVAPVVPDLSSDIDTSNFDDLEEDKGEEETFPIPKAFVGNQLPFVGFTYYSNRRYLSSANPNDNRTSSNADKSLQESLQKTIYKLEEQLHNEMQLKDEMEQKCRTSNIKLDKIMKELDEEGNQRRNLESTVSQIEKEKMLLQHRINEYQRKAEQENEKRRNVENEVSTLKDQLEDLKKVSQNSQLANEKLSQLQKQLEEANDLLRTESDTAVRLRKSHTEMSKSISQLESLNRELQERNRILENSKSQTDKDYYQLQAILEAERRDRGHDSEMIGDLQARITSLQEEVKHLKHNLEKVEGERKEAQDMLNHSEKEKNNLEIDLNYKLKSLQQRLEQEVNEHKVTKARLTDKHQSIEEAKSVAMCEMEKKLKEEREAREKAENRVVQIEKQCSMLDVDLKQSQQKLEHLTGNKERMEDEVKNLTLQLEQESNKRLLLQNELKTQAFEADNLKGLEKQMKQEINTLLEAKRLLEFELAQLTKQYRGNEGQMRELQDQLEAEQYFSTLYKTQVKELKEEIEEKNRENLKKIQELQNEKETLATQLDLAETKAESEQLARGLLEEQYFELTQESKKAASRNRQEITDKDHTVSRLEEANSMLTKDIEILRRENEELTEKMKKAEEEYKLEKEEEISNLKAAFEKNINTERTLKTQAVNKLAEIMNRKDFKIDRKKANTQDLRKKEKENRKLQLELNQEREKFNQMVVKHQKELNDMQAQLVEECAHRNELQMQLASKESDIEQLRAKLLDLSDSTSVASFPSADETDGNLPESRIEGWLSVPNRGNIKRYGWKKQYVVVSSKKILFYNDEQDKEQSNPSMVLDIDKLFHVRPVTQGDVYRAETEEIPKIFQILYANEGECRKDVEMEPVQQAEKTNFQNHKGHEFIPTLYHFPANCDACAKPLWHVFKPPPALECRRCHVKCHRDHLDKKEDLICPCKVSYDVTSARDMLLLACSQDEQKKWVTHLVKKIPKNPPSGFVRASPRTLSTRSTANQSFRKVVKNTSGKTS
Sphingosine 1-phosphate receptor 2, sequence (O95136 whole entry): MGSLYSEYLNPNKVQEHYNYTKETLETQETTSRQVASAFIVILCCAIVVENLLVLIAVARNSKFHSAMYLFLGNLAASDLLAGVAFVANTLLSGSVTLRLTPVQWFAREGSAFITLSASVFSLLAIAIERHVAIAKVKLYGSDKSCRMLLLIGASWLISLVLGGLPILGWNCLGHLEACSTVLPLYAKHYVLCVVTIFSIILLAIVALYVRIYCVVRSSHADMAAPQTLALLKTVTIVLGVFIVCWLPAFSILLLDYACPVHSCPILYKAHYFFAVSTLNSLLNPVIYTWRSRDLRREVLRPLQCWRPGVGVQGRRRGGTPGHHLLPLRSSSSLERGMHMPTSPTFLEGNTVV

With `O=C(c1coc(C2CC2)n1)N(C1CCCCC1)C1CCCCC1`, the EC50 in experiment [1] and in experiment [2] was > 50 µM (inactive) in each case.

As to `CCc1cccc2c1n(CC)c(=N)n2CC(=O)c1ccc(Cl)cc1`, the figures for the Ki in experiment [3], in [4] and in experiment [5] were 2.51 µM (active), 1.58 µM (active) and 2.51 µM (active), respectively.

Regarding `CCNC(=O)c1[nH]nc(-c2cc(Cl)c(O)cc2O)c1-c1ccc(OC)cc1`, the Ki is 1.58 µM (active) in [6]; 1.58 µM (active) in experiment [7]; 1.26 µM (active) in experiment [8]; 3.98 µM (active) in [9]; 3.16 µM (active) in experiment [10].

`Cc1nn(CC(C)C(=O)O)c(C)c1C` (stereo not given): the EC50 in experiment [11] is > 100 µM (inactive); in experiment [12], 63.6 µM (active).

As to `Nc1ncnc2c1ncn2C1OC(C(=O)NC2CC2)C(O)C1O` (stereo not given), the IC50 in experiment [13] is 0.00447 µM (active); in experiment [14], 0.0241 nM (inconclusive).

Take `C(=Cc1cncc(OCCc2c[nH]c3ccccc23)c1)c1ccncc1`: the Ki was 1 µM (active) in experiment [3]; 5.01 µM (active) in [15]; 6.31 µM (active) in [16]; 3.16 µM (active) in experiment [17]; > 10 µM (inactive) in experiment [18].

In the case of `CC1(C)Oc2ccc3ccc(=O)oc3c2C(/C=N/O)=C1Cl`, the IC50 is 6.8 µM (active) in experiment [19]; 4.97 µM (active) in [20]; 43 µM (inactive) in [21]; > 100 µM (inactive) in [22]; 10.3 µM (active) in experiment [23]; > 99 µM (inactive) in experiment [24].
